Here are results for one molecule from patent US20150202157A1, “COMPOSITIONS AND METHODS FOR ENHANCING NEURONAL PHOSPHORYLATION HOMEOSTASIS, AND MODULATING DYSFUNCTIONAL EXOCYTOSIS AND NEUROTRANSMITTER RELEASE” (Revalesio Corporation, priority 2014, published 2015).

The experiment relates to squid giant synapse. Nature of the experiment: Electron microscopy of presynaptic terminal (synaptic vesicles at active zones). It counts as cell-based, squid (Loligo paelli). To be noted: treated squid following h-tau42 injection. From the text: Immediately following the electrophysiological study the ganglia were removed from the recording chamber, fixed by immersion in glutaraldehyde, postfixed in osmium tetroxide, stained in block with uranium acetate, dehydrated and embedded in resin (Embed 812, EM Sciences). Ultrathin sections were collected on Pioloform (Ted Pella, Redding, Calif.) and carbon-coated single sloth grids, and contrasted with uranyl acetate and lead citrate. Morphometry and quantitative analysis of the synaptic vesicles were performed with the in house program developed with LabVIEW (National Instruments, Ostin Tex.). […] Vesicle density at the synaptic active zones was determined as the number of vesicles per μm^2, on an average area of 0.8 μm^2 per active zone. CCV density was determined within the limits of the presynaptic terminal on an average terminal area of 3.3 μm^2.
At the end of the electrophysiological recordings the stellate ganglion was immediately removed from the recording chamber and fixed by immersion in glutaraldehyde. […] Morphometry and quantitative analysis of the synaptic vesicles were performed with the image J software (NIH, EUA). […] Synaptic vesicle density and the number of CCV at the synaptic active zones were determined as the number of vesicles per μm2. […]

Take `O=C(O)/C=C\C(=O)O.OC1CN(CCCOCCc2ccc3sccc3c2)C1` [T817MA]: the “reduction in number of docked vesicles following h-tau42 injection” value is “not seen”.
